Results reported in ChEMBL document CHEMBL1201862, “PubChem BioAssay data set” (2004).
Calls of active or inactive are those of the source.

Experiments:
[1] = biological target: Leukocyte tyrosine kinase receptor (Homo sapiens, UniProt P29376); test: Navigating the Kinome. Panel member name: LTK; type: functional
[2] = biological target: Serine/threonine-protein kinase Chk1 (Homo sapiens, UniProt O14757); type: functional;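 further: measured as one member of a kinome-wide kinase profiling panel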
[3] = biological target: Casein kinase I isoform alpha (Homo sapiens, UniProt P48729); type: functional
[4] = biological target: Platelet-derived growth factor receptor alpha (Homo sapiens, UniProt P16234); test: Navigating the Kinome. Panel member name: PDGFRA; type: functional
[5] = biological target: Vascular endothelial growth factor receptor 1 (Homo sapiens, UniProt P17948); type: functional;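 further: measured within a kinome-wide profiling panel, FLT1 as the panel member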
[6] = biological target: Proto-oncogene tyrosine-protein kinase receptor Ret (Homo sapiens, UniProt P07949); type: functional;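 further: measured within a kinome-wide profiling panel, RET as the panel member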
[7] = biological target: G protein-coupled receptor kinase 5 (Homo sapiens, UniProt P34947); test: Navigating the Kinome. Panel member name: GPRK5; type: functional
[8] = biological target: Dual specificity tyrosine-phosphorylation-regulated kinase 1A (Homo sapiens, UniProt Q13627); type: functional;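 further: measured against DYRK1A as one member of a broad kinome profiling panel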
Focal adhesion kinase 1 = Focal adhesion kinase 1 (Homo sapiens, UniProt Q05397); type: functional;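 further: measured as one member of a kinome panel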
[9] = biological target: Protein kinase C theta type (Homo sapiens, UniProt Q04759); test: Navigating the Kinome. Panel member name: PRKCQ; type: functional
[10] = biological target: Cyclin-dependent kinase 5 (Homo sapiens, UniProt Q00535); type: functional;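 further: CDK5 measured as one member of a kinase profiling panel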
[11] = biological target: Dual specificity protein kinase CLK4 (Homo sapiens, UniProt Q9HAZ1); type: functional
[12] = biological target: Mitogen-activated protein kinase kinase kinase kinase 4 (Homo sapiens, UniProt O95819); type: functional
[13] = biological target: Tyrosine-protein kinase receptor TYRO3 (Homo sapiens, UniProt Q06418); type: functional;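 further: TYRO3 value obtained as one member of a kinome-wide profiling panel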
[14] = biological target: Fibroblast growth factor receptor 1 (Homo sapiens, UniProt P11362); type: functional
[15] = biological target: Platelet-derived growth factor receptor beta (Homo sapiens, UniProt P09619); type: functional;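 further: value comes from a kinome panel, with PDGFRB tested as one panel member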
[16] = biological target: cAMP-dependent protein kinase catalytic subunit alpha (Homo sapiens, UniProt P17612); type: functional
[17] = biological target: Serine/threonine-protein kinase Nek2 (Homo sapiens, UniProt P51955); type: functional
[18] = biological target: Hepatocyte growth factor receptor (Homo sapiens, UniProt P08581); type: functional;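 further: kinase panel profiling across the kinome, with MET as the panel member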
[19] = biological target: Tyrosine-protein kinase ABL1 (Homo sapiens, UniProt P00519); type: functional
Aurora kinase A = Aurora kinase A (Homo sapiens, UniProt O14965); type: functional;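 further: value from the Navigating the Kinome kinase panel profiling, panel entry STK6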
Aurora kinase B = Aurora kinase B (Homo sapiens, UniProt Q96GD4); type: functional
[20] = biological target: Vascular endothelial growth factor receptor 2 (Homo sapiens, UniProt P35968); type: functional
[21] = biological target: Cyclin-dependent kinase 8 (Homo sapiens, UniProt P49336); test: Navigating the Kinome. Panel member name: CDK8; type: functional
[22] = biological target: Dual specificity tyrosine-phosphorylation-regulated kinase 1B (Homo sapiens, UniProt Q9Y463); test: Navigating the Kinome. Panel member name: DYRK1B; type: functional
[23] = biological target: Macrophage colony-stimulating factor 1 receptor (Homo sapiens, UniProt P07333); type: functional;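 further: value comes from the Navigating the Kinome screening panel, CSF1R member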
[24] = biological target: Inhibitor of nuclear factor kappa-B kinase subunit epsilon (Homo sapiens, UniProt Q14164); test: Navigating the Kinome. Panel member name: IKBKE; type: functional
Activated CDC42 kinase 1 = Activated CDC42 kinase 1 (Homo sapiens, UniProt Q07912); test: Navigating the Kinome. Panel member name: ACK1; type: functional
[25] = biological target: Calcium/calmodulin-dependent protein kinase type II subunit alpha (Homo sapiens, UniProt Q9UQM7); test: Navigating the Kinome. Panel member name: CAMK2A; type: functional
[26] = biological target: Dual specificity mitogen-activated protein kinase kinase 1 (Homo sapiens, UniProt Q02750); test: Navigating the Kinome. Panel member name: MAP2K1; type: functional
[27] = biological target: T1, Botulinum neurotoxin type F (Clostridium botulinum, UniProt P30996); test: High-throughput multiplex microsphere dose response for inhibitors of toxin protease, specifically Botulinum neurotoxin light chain F protease, compounds from Cherry Pick 02.; type: functional; conditions: read-out: EC50_MICROM
[28] = biological target: T1, Botulinum neurotoxin type F; test: High-throughput multiplex microsphere dose response for inhibitors of toxin protease, specifically Botulinum neurotoxin light chain F protease, compounds from Cherry Pick 01.; type: functional; conditions: read-out: EC50_MICROM
Beta-lactamase [29] = biological target: Beta-lactamase (Pseudomonas aeruginosa, UniProt Q79MP6);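 further: biochemical dose-response test of metallo-beta-lactamase enzyme inhibition, read out by epi-absorbance; purified recombinant IMP-1 metallo-beta-lactamase with nitrocefin as substrate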
[30] = biological target: T2, Botulinum neurotoxin type A (Clostridium botulinum (strain Hall / ATCC 3502 / NCTC 13319 / Type A), UniProt P0DPI1); test: High-throughput multiplex microsphere dose response for inhibitors of toxin protease, specifically Botulinum neurotoxin light chain A protease, compounds from Powder Set 01.; type: functional, Clostridium botulinum A str. ATCC 3502; conditions: read-out: EC50_MICROM
[31] = biological target: T2, Botulinum neurotoxin type A; test: High-throughput multiplex microsphere dose response for inhibitors of toxin protease, specifically Botulinum neurotoxin light chain A protease, compounds from Cherry Pick 01.; type: functional; conditions: read-out: EC50_MICROM
[32] = biological target: T3, G-protein coupled receptor 55 (Homo sapiens, UniProt Q9Y2T6); test: selective activators of receptor GPR55 – imaging, U2OS cells, beta-arrestin-GFP redistribution, primary screen (AID 1961); type: functional
Beta-lactamase [33] = biological target: Beta-lactamase (Salmonella choleraesuis (strain SC-B67), UniProt Q5J463)
[34] = biological target: T2, Botulinum neurotoxin type A; test: Confirmatory FRET assay using full length substrates for Botulinum neurotoxin light chain A protease, with Powder Set01.; type: functional
[35] = biological target: T2, Botulinum neurotoxin type A; test: High-throughput multiplex microsphere dose response for inhibitors of toxin protease, specifically Botulinum neurotoxin light chain A protease, compounds from Cherry Pick 02.; type: functional; conditions: read-out: EC50_MICROM
Insulin-degrading enzyme [36] = biological target: T4, Insulin-degrading enzyme (Homo sapiens, UniProt P14735); test: cellular IDE activation of Abeta substrate cleavage – fluorescence polarization, HEK cells, dose response (AID 588439); type: functional, cell-based
T4 sequence (P14735 whole entry): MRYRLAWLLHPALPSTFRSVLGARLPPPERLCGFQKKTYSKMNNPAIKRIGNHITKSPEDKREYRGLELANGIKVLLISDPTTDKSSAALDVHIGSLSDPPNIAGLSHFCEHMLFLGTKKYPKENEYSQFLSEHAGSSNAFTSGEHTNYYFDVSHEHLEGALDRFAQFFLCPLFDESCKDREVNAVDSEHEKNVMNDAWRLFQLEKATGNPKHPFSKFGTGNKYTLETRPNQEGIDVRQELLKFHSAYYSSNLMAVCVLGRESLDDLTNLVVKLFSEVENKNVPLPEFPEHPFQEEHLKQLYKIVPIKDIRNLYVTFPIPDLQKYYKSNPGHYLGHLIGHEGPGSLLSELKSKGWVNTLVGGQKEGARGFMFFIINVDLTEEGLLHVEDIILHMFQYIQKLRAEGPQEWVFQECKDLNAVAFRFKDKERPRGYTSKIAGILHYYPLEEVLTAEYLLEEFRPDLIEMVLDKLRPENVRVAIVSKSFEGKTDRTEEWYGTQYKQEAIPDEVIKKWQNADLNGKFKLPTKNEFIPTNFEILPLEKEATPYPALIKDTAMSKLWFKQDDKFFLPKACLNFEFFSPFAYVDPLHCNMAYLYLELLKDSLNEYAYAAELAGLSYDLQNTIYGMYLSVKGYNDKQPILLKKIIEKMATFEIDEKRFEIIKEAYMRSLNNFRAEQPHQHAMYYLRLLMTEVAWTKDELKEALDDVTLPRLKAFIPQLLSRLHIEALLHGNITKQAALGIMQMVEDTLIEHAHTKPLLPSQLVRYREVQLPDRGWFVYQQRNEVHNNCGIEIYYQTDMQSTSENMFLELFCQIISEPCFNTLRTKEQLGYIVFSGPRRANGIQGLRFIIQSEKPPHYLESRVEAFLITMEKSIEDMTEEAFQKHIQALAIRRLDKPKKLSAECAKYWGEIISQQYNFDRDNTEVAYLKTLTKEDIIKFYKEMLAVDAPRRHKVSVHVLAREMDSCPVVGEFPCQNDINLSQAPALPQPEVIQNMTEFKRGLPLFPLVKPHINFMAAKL

[37] = biological target: T3, G-protein coupled receptor 55; test: inhibition of LPI-stimulated GPR55 beta-arrestin translocation – imaging, U2OS, beta-arrestin-GFP, LPI agonist, primary screen (AID 2013); type: functional;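 further: antagonist potency measured as reduced agonist-driven arrestin aggregation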
HEK293 [38] = test: membrane integrity loss in HEK cells – cell-based, fluorescence, cytotoxicity control for IDE activator project, dose response (AID 588440); type: functional; conditions: Homo sapiens;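 further: cytotoxicity by LDH release measuring loss of membrane integrity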
HEK293 [39] = test: optical interference in Abeta FP readout, dose response, artefact control for IDE activator project, biochemical, fluorescence polarization (AID 588442); type: functional, cell-based; conditions: Homo sapiens
Insulin-degrading enzyme [40] = biological target: T4, Insulin-degrading enzyme; test: recombinant IDE activation, cell-free – biochemical, fluorescence polarization, counter-screen for IDE activator project, dose response (AID 588681)
[41] = biological target: Rho-associated protein kinase 1 (Homo sapiens, UniProt Q13464); type: functional;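 further: measured within a broad kinome-wide panel profiling many kinases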
[42] = biological target: Cyclin-dependent kinase 9 (Homo sapiens, UniProt P50750); type: functional;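 further: value from the CDK9 entry of a kinome-spanning kinase panel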
[43] = Vero cell cytotoxicity, dose response, cytotoxicity control for M. tuberculosis growth inhibitor project, Vero cells, purified and synthesized compounds, set 4 (AID 504854); type: functional; conditions: Mycobacterium tuberculosis
[44] = THP-1 cell cytotoxicity, cytotoxicity control, set 4 (AID 504911); type: functional; conditions: Mycobacterium tuberculosis
[45] = THP-1 cell cytotoxicity, cytotoxicity control, set 5 (AID 588443); type: functional
[46] = Vero cell viability loss – purified and synthesized compounds, set 6, cytotoxicity control for M. tuberculosis inhibitor project, dose response (AID 588445); type: functional; conditions: Mycobacterium tuberculosis
[47] = biological target: Glycogen synthase kinase-3 beta (Homo sapiens, UniProt P49841); type: functional;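 further: value comes from a broad kinome profiling panel, with GSK3B as the panel member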
[48] = biological target: Homeodomain-interacting protein kinase 2 (Homo sapiens, UniProt Q9H2X6); type: functional;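 further: measured within a kinome-wide kinase profiling panel, HIPK2 being one panel member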
[49] = biological target: Interleukin-1 receptor-associated kinase 4 (Homo sapiens, UniProt Q9NWZ3); type: functional
[50] = biological target: DNA dC->dU-editing enzyme APOBEC-3A (Homo sapiens, UniProt P31941); test: SAR analysis of small molecule inhibitors of APOBEC3A DNA Deaminase via a fluorescence-based single-stranded DNA deaminase assay.; type: functional; conditions: read-out: IC50_Mean
[51] = biological target: DNA dC->dU-editing enzyme APOBEC-3G (Homo sapiens, UniProt Q9HC16); test: inhibition of APOBEC3G ssDNA deamination – biochemical, fluorescence, single-stranded DNA substrate, SAR follow-up (AID 602136); type: functional; conditions: read-out: IC50_Mean

T2 sequence (P0DPI1 2-448 limits assumed): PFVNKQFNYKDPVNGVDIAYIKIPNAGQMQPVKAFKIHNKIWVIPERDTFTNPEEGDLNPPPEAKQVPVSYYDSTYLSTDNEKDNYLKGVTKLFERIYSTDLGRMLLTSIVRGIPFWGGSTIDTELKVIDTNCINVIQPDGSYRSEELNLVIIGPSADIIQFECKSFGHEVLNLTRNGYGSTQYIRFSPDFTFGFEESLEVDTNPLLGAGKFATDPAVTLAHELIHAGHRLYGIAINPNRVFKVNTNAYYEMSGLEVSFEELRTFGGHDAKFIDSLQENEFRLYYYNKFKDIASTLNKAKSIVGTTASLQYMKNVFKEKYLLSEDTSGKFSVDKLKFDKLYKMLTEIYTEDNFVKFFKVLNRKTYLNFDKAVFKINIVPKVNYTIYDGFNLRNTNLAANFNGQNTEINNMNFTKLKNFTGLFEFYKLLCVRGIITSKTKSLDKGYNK
Dual specificity protein kinase CLK4, sequence (Q9HAZ1 whole entry): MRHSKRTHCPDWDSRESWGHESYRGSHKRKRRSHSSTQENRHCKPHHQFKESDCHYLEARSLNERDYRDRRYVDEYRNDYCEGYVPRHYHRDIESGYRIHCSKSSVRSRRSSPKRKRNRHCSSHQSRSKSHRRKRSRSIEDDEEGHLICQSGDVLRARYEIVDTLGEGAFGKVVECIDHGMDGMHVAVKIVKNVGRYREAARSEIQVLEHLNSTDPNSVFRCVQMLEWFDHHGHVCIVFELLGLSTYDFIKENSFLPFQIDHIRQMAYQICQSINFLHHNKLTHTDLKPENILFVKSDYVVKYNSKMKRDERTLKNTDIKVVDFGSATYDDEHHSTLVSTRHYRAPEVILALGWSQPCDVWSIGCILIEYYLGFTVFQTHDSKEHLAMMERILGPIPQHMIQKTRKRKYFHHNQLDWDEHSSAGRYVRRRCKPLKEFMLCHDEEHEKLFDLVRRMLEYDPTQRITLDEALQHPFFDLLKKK
Platelet-derived growth factor receptor alpha, sequence (P16234 whole entry): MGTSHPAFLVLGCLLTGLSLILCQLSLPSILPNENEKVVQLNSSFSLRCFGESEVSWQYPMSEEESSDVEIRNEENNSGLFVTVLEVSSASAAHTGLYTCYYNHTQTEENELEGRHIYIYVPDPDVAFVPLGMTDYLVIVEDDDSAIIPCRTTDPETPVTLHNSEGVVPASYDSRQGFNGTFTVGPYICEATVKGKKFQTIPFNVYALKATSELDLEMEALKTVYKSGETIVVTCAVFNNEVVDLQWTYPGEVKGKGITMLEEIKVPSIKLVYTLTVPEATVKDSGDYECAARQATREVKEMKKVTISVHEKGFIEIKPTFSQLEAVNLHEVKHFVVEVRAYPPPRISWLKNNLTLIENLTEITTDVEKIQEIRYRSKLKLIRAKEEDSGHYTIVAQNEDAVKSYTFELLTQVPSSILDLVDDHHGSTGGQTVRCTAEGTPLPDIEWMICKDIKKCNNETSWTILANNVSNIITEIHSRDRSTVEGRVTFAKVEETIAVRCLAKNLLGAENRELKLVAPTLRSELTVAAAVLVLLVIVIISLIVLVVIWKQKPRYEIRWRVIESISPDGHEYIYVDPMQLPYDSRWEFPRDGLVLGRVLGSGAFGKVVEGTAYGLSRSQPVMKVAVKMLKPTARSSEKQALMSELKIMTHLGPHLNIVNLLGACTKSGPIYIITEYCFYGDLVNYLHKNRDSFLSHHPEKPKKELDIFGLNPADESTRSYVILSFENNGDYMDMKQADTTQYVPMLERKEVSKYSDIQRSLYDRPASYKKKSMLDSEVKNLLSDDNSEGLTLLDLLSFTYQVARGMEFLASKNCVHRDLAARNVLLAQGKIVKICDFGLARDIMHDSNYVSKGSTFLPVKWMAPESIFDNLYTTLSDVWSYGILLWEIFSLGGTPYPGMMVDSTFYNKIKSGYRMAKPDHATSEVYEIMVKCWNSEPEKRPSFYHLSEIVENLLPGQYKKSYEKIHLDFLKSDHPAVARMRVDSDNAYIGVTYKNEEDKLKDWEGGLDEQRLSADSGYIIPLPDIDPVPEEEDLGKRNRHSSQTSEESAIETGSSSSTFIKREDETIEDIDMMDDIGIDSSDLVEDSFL
Beta-lactamase (Pseudomonas aeruginosa, UniProt Q79MP6), sequence (Q79MP6 whole entry): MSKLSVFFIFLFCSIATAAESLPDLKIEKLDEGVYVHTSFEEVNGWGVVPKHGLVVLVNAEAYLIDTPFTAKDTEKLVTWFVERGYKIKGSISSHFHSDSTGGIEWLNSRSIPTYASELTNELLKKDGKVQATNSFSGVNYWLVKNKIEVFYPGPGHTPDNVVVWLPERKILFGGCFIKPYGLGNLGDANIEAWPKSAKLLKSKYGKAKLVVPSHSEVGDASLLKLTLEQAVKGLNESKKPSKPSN
T1 sequence (P30996 1-436 limits assumed): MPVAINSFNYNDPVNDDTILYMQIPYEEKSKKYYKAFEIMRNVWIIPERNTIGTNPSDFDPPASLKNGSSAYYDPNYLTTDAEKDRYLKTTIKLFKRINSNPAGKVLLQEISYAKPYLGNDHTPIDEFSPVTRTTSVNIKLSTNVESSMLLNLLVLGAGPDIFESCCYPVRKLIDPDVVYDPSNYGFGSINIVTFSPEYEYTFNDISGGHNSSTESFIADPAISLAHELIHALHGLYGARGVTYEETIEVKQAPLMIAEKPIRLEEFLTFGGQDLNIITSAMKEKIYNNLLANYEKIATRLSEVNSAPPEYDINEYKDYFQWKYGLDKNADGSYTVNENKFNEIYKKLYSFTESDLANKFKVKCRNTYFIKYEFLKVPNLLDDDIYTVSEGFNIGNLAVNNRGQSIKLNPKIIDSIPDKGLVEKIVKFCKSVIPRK
Dual specificity tyrosine-phosphorylation-regulated kinase 1B, sequence (Q9Y463 whole entry): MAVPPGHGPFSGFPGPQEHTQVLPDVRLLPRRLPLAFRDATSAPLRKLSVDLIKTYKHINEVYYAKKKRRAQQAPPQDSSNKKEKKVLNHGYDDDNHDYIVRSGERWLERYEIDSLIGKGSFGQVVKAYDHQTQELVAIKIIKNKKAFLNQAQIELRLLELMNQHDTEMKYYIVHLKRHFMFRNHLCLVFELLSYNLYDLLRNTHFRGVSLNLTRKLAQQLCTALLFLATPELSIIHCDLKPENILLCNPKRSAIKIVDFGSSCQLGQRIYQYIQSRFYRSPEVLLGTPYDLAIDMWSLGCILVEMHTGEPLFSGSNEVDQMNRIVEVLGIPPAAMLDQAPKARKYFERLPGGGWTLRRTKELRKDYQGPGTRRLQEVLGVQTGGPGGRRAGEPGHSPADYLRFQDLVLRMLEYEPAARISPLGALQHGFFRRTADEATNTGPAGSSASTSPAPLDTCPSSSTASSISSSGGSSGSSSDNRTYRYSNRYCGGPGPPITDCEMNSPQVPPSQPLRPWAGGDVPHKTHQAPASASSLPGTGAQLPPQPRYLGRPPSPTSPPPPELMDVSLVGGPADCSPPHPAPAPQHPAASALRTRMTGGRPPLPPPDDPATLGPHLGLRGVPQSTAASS
Vascular endothelial growth factor receptor 2, sequence (P35968 whole entry): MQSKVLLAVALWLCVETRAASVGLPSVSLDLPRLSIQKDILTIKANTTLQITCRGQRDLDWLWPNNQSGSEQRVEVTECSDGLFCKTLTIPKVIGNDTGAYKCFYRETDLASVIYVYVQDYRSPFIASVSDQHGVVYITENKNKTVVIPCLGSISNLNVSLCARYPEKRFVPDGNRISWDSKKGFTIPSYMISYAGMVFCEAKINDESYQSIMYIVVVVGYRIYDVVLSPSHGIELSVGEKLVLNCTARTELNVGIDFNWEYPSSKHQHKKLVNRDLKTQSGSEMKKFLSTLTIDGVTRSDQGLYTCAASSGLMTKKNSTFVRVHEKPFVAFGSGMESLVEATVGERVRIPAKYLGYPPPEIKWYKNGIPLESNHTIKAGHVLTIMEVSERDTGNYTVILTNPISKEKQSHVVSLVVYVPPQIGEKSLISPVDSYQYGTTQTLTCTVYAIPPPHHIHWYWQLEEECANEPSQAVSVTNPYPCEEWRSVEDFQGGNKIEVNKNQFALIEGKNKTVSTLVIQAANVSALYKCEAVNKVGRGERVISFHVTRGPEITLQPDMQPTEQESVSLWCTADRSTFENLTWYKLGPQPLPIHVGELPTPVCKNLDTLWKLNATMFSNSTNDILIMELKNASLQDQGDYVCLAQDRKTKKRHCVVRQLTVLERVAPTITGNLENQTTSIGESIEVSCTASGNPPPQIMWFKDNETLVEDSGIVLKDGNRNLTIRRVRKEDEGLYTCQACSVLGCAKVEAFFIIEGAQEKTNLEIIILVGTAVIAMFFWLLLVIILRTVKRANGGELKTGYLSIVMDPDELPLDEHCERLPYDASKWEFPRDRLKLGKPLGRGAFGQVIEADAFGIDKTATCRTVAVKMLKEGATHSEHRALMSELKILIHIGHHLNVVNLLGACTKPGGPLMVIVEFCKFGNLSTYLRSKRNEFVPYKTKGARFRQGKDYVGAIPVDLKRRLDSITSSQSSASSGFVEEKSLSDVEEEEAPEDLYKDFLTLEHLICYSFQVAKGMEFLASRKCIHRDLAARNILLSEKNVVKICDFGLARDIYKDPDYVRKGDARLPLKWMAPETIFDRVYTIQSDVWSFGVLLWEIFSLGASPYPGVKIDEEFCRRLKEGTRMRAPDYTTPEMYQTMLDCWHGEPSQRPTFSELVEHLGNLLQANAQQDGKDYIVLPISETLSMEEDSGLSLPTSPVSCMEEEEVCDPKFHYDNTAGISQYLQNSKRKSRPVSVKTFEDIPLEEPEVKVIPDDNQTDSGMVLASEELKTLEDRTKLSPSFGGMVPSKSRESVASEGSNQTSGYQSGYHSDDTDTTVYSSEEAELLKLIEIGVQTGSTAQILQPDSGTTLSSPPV
T3 sequence (Q9Y2T6 whole entry): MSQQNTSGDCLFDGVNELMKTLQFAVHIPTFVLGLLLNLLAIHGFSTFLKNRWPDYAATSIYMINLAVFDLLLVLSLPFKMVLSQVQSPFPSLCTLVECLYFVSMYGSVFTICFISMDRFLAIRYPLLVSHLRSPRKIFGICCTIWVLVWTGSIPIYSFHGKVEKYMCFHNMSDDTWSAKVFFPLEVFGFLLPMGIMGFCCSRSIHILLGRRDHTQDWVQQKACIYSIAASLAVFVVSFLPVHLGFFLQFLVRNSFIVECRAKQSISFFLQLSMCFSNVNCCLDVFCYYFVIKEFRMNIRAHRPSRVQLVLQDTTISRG

CC(C)c1cc(=O)[nH]c2[nH][nH]c(=O)c12
inactive: Ki [9] > 100 µM | Ki [15] > 79.4 µM | Ki [16] > 50.1 µM | Ki [20] > 100 µM
active: Ki [1] 15.8 µM | Ki [2] 12.6 µM | Ki [3] 20 µM | Ki [4] 63.1 µM | Ki [5] 79.4 µM | Ki [6] 31.6 µM | Ki [7] 20 µM | Ki [8] 15.8 µM | Ki (Focal adhesion kinase 1) 79.4 µM | Ki [10] 15.8 µM | Ki [11] 5.01 µM | Ki [12] 100 µM | Ki [13] 31.6 µM | Ki [14] 63.1 µM | Ki [17] 63.1 µM | Ki [18] 63.1 µM | Ki [19] 63.1 µM | Ki (Aurora kinase A) 15.8 µM | Ki (Aurora kinase B) 63.1 µM | Ki [21] 31.6 µM | Ki [22] 15.8 µM | Ki [23] 10 µM | Ki [24] 63.1 µM | Ki (Activated CDC42 kinase 1) 25.1 µM | Ki [25] 63.1 µM | Ki [26] 100 µM

COc1ccccc1[N+]1=N[C-](c2ccc([N+](=O)[O-])cc2)CC1c1ccccc1 (stereo not given)
inactive: IC50 (Beta-lactamase [29]) > 59.6 µM | IC50 (Beta-lactamase [33]) > 59.6 µM
active: EC50 [27] 0.4 µM | EC50 [28] 1.8 µM | EC50 [30] 1.4 µM | EC50 [31] 1.7 µM | EC50 [32] < 0.5 µM | EC50 [34] 0.2 µM | EC50 [35] 1 µM

CCN(CC)C1=CC2=CC(=C(C#N)C#N)CCC2CC1 (stereo not given)
active: IC50 [37] 3 µM | IC50 (Beta-lactamase [29]) 3.32 µM | IC50 (Beta-lactamase [33]) 1.34 µM
inactive: EC50 (Insulin-degrading enzyme [36]) > 54.7 µM | IC50 (HEK293 [38]) > 89.2 µM | EC50 (HEK293 [39]) > 54.7 µM | EC50 (Insulin-degrading enzyme [40]) > 54.7 µM

c1ccc(C2CCc3[nH]ncc32)cc1 (stereo not given)
active: Ki [4] 79.4 µM | Ki [41] 20 µM | Ki [11] 12.6 µM | Ki [16] 39.8 µM | Ki [42] 31.6 µM | Ki [20] 50.1 µM | Ki [21] 39.8 µM | Ki [22] 39.8 µM

O=C(CSc1nc2c(c(=O)[nH]1)CCC2)NC1CCCCC1
active: CC50 [43] > 100 µM | CC50 [44] > 100 µM

CCC(C)NC(=O)CSc1nc2ccccc2c(=O)[nH]1 (stereo not given)
active: CC50 [45] > 100 µM | CC50 [46] > 100 µM

CN(C)c1ccc(-c2c(-c3ccc4[nH]nc(N)c4c3)nnn2Cc2ccccc2)cc1
active: Ki [47] 0.0251 µM | Ki [12] 0.0794 µM | Ki [16] 0.631 µM
inactive: Ki [48] > 3.16 µM | Ki [49] > 10 µM

CCn1c(SCC(=O)NCc2ccco2)nnc1-c1ccccc1O
inactive: IC50 [50] > 99 µM | IC50 [51] > 99 µM
